Source: USRE50282E1, “Specific modification of antibody with IgG-binding peptide” (KAGOSHIMA UNIVERSITY, priority 2015, dated 2025)
One block for each molecule: values may come before it. *1 amine or outer side, *2 acyl side, *3 side chain or, on linkers, in order; H or OH if unused. Where a SMILES comes first, the peptide text is derived from it. Bridges are numbered along the chain shown (N, C = ends). Where no end group is shown, it is not given here. [ ]: non-standard residue; d: D form. The star is where a group is joined. DSS = disuccinimidyl suberate, reactive NHS group, O=C(CCCCCCC(=O)*)ON1C(=O)CCC1=O; Dolaproine = CO[C@@H]([C@@H]1CCCN1)[C@@H](C)C(=O)O; Hexanoyl(6-maleimido) = O=C1C=CC(=O)N1CCCCCC(=O)*; Biotin = O=C1N[C@H]2[C@H](CS[C@H]2CCCCC(=O)*)N1; Dil = CC[C@H](C)[C@H](NC)[C@@H](CC(=O)O)OC; PABC = O=C(OCc1ccc(N[*:1])cc1)[*:2]; X1 = C[C@@H](N*)[C@@H](O)c1ccccc1; PEG5 = NCCOCCOCCOCCOCCOCCC(=O)O; Cit = NC(=O)NCCC[C@H](N)C(=O)O; NMeV = CN[C@H](C(=O)O)C(C)C

Legend:
human IgG [1] = biological target: T1, human IgG (Homo sapiens, UniProt P01857); assay type: binding; details: SPR; peptides N-terminally blocked with biotinylated PEG4; NHS group hydrolysed
SK-BR3 cells [2] = experiment: Cell growth inhibition, Cell Counting Kit-8, 72 hours (Examples 11 and 12); assay type: cell-based; details: 0 to 500 nM
4D5-Fc antibody = details: PE-labeled streptavidin; dead cells excluded by 7-AAD
SK-BR3 cells [3] = details: peptide plus SA-PE label only
human IgG Fc = biological target: T2, human IgG Fc (Homo sapiens, UniProt P01857); experiment: Cross-linking reaction with Fc analyzed by ion-exchange chromatography (Examples 6 and 7); assay type: biochemical; details: for unreacted form (peak 2) produced: 15 minutes
T2 construct: human IgG (Chugai Pharmaceutical Co., Ltd.) Fc solution; purchased Chugai Pharmaceutical Co., Ltd
Procedure: The reaction was terminated by the addition of 10 μL of 1 M Tris-HCl (pH 7.0). 50 μL of the reaction product was injected to NGC Chromatography system (Bio-Rad Laboratories, Inc.) connected with Shodex IEC SP-825 column, followed by gradient elution from a 25 mM acetate buffer (pH 4.5) to a 25 mM acetate buffer (pH 4.5) containing 1 M NaCl. The protein elution was monitored on the basis of absorbance at 215 nm. Each obtained peak was separated and subjected to molecular weight measurement by LC/MS.
20 μL of the obtained fraction of the peak was injected to Shimadzu LCMS-8030 connected with Waters ACQUITY UPLC BEH C8 (1.7 μm, 2.1 mm×100 mm) column, followed by gradient elution from 4% acetonitrile containing 0.1% formic acid to 60% acetonitrile containing 0.1% formic acid. The eluted peaks were subjected to mass spectrometry, and the masses were calculated by deconvolution from polyvalent ion peaks using analytical software.
1.0 μL (molar ratio: 1.0) of the DSG-modified IgG-binding peptide (4 mM) dissolved in DMF, prepared in Example 5 was added to 200 μL of a human IgG Fc solution prepared at pH 4.0 (25 mM acetate buffer solution), pH 5.5 (25 mM acetate buffer solution), or pH 7.0 (PBS), and the mixture was rapidly stirred and then reacted at room temperature. 1, 5, 10, or 30 minutes after the start of the reaction, the reaction was terminated by the addition of 10 μL of 1 M Tris-HCl (pH 7.0). 50 μL of the reaction product was injected to NGC Chromatography system (Bio-Rad Laboratories, Inc.) connected with Shodex IEC SP-825 column, followed by gradient elution from a 25 mM acetate buffer (pH 4.5) to a 25 mM acetate buffer (pH 4.5) containing 1 M NaCl. The protein elution was monitored on the basis of absorbance at 215 nm. On the basis of the obtained chromatogram, the percentage of each peak was calculated.

[4] = biological target: T3, rabbit IgG (polyclonal antibody) (Oryctolagus cuniculus, UniProt P01870); experiment: Labeling of various IgG, SDS-PAGE and Western blot with HRP-labeled streptavidin (Example 13); assay type: binding; details: antibody:peptide 1:4; 30 minutes
T3 construct: purchased Thermo Fisher Scientific Inc

human IgG [5] = biological target: human IgG (Homo sapiens, UniProt P01859); experiment: as above; details: human IgG2; antibody:peptide 1:4; 30 minutes
human IgG [6] = biological target: T1, human IgG; experiment: as above; details: human monoclonal IgG1; antibody:peptide 1:4; 30 minutes
human IgG [7] = biological target: human IgG (Homo sapiens, UniProt P01861); experiment: as above; details: human IgG4; antibody:peptide 1:4; 30 minutes
[8] = system: hIgA, bovine gelatin, or BSA; experiment: ELISA of reaction between labeled IgG-binding peptide and other plate proteins (Example 4); details: excess of labeled peptide reagent
Procedure: A 0.1 M NaHCO3 solution containing each protein (IgG (Chugai Pharmaceutical Co., Ltd.), IgA (Athens Research & Technology, Inc.), or bovine gelatin (Wako Pure Chemical Industries, Ltd.)) (50 ng (0.33 pmol)/μl/well) was added to wells of a 96-well microplate (Nunc® MaxiSorp), and the plate was left overnight at room temperature to adsorb each protein onto the surface of the plate. […] After a lapse of 1 hour, the reaction was terminated by the addition of 1 M Tris-HCl (pH 7.0) at 3 μL/well. SA-HRP (Vector Laboratories, Inc.) diluted 2000-fold with 0.5% BSA was added thereto at 50 μL/well and reacted at room temperature for 1 hour. Then, the plate was washed five times with 0.1% PBST. Then, a TMB solution (Wako Pure Chemical Industries, Ltd.) was used in the color development of HRP. After 5-minute chromogenic reaction, the absorbance at 450 nm was measured using an ELISA plate reader (model 680 microplate reader (Bio-Rad Laboratories, Inc.)).

hIgG = biological target: T4, hIgG (Homo sapiens, UniProt P01857); experiment: ELISA of reaction between labeled IgG-binding peptide and plate-adsorbed IgG (Example 4)
T4 construct: purchased Chugai Pharmaceutical Co., Ltd

T3 sequence (P01870 whole entry): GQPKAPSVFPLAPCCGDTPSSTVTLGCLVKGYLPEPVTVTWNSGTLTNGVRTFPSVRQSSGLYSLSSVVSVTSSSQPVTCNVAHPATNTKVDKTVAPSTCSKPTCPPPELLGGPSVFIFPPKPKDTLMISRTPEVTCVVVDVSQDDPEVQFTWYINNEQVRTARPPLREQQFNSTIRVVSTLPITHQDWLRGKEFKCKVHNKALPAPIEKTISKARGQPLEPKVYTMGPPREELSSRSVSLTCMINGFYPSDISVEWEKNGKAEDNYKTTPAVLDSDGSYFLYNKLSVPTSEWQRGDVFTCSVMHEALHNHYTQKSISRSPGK
Sequence of human IgG (Homo sapiens, UniProt P01861) (P01861 1-327 isoform P01861-1): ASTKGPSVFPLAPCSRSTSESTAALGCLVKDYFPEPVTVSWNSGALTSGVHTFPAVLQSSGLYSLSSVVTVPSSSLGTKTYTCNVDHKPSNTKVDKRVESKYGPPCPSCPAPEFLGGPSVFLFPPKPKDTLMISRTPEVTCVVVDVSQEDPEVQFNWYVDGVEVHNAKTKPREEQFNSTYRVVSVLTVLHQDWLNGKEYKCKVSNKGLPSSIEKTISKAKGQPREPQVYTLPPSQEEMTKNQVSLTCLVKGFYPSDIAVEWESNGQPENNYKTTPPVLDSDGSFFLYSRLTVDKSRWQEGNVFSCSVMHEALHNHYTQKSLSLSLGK
Sequence of human IgG (Homo sapiens, UniProt P01859) (P01859 1-326 isoform P01859-1): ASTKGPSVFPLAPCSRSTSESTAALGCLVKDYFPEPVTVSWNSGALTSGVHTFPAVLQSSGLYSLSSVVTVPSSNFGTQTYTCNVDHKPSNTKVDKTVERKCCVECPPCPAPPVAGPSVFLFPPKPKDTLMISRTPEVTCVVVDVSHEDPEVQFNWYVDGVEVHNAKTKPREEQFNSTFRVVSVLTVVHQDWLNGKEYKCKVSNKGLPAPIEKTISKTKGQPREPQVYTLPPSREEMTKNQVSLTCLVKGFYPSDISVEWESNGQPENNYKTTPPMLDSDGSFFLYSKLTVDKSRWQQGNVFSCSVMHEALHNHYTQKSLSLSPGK

Molecule: CC(C)C[C@@H]1NC(=O)[C@H](CCC(=O)O)NC(=O)CNC(=O)[C@H](CCCNC(=N)N)NC(=O)[C@H](Cc2c[nH]cn2)NC(=O)[C@H](Cc2ccc(O)cc2)NC(=O)[C@H](C)NC(=O)[C@@H](NC(=O)[C@H](CC(=O)O)NC(=O)[C@@H]2CCCN2C(=O)CNC(=O)CCOCCOCCOCCOCCOCCNC(=O)CCCC[C@@H]2SC[C@@H]3NC(=O)N[C@@H]32)CSSC[C@@H](C(=O)N[C@H](C(=O)N[C@@H](Cc2ccccc2)C(=O)N[C@@H](Cc2c[nH]cn2)C(N)=O)[C@@H](C)O)NC(=O)[C@H](Cc2c[nH]c3ccccc23)NC(=O)[C@H](C(C)C)NC1=O [Type I] ({Biotin-PEG5}-GPDCAYHRGELVWCTFH-NH2; disulfide 4-14)
ka (human IgG [1]): 1.57E+06
kd (human IgG [1]): 0.0144

Molecule: CC[C@H](C)[C@@H]([C@@H](CC(=O)N1CCC[C@H]1[C@H](OC)[C@@H](C)C(=O)N[C@H](C)[C@@H](O)c1ccccc1)OC)N(C)C(=O)[C@@H](NC(=O)[C@H](C(C)C)N(C)C(=O)OCc1ccc(NC(=O)[C@H](CCCNC(N)=O)NC(=O)[C@@H](NC(=O)CCCCCN2C(=O)C=CC2=O)C(C)C)cc1)C(C)C [VcMMAE, maleimidocaproyl-valine-citrulline-p-aminobenzoyloxycarbonyl-monomethyl auristatin E] ({Hexanoyl(6-maleimido)}-V[Cit][PABC][NMeV]V[Dil][Dolaproine]-X1)
concentration giving cell growth inhibition (SK-BR3 cells [2]): ≥ 250 nM

Molecule: Biotin-PEG4-RGNCAYHXGQLVWCTYH-NH2 [DSG-modified IgG-binding peptide]
fluorescence intensity compared with biotinylated anti-human IgG mouse antibody (4D5-Fc antibody): rarely differed in fluorescence intensity
shift in fluorescence intensity without 4D5-Fc (SK-BR3 cells [3]): no shift in fluorescence intensity
Fc with a larger number of peptides than two added (human IgG Fc; excessive molar ratio 1:5, pH 4.5): not detected
unreacted form (peak 2) produced (human IgG Fc; molar ratio 1:1, pH 4.5, room temperature): ≤ 20%
unreacted form (peak 2) produced (human IgG Fc; molar ratio 1:2, pH 4.5, room temperature): ≤ 10%
yield of the adduct of two peptides (peak 4) (human IgG Fc; other pH cases (pH 5.5, pH 7.0), molar ratio 1.0): 35-40%
part of the reaction completed within 1 minute (human IgG Fc; pH 4.0, pH 5.5 and pH 7.0, molar ratio 1.0, room temperature): ≥ 90%
amount of the unreacted form remaining (human IgG Fc; pH 4.0, molar ratio 1.0): exceeded 40%
yield of the adduct of two peptides (peak 4) (human IgG Fc; pH 4.0, molar ratio 1.0): approximately 15%
yield of the unreacted form (human IgG Fc; pH 5.5 and 7.0, molar ratio 1.0): ~10%
labeling of rabbit polyclonal IgG (staining in Western blot) [4]: strongly stained
labeling of human IgG2 (band in Western blot) (human IgG [5]): dark bands
labeling of human IgG1 (band in Western blot) (human IgG [6]): dark bands
labeling of human IgG4 (band in Western blot) (human IgG [7]): dark bands

binding to other proteins [8]: not detected
reaction time at which saturation was seen (hIgG; IgG and peptide at molar ratio 1:2): approximately 15 minutes
molar ratio at which saturation was seen (hIgG; molar ratios 1 to 10, 1 hour): approximately 5
Molecule: labeled IgG-binding peptide modified with DSS: biotinylated IgG-binding (R8K) peptide modified with cross-linking agent, prepared as in Example 2 (GDDCAYHK(DSS)GELVWCTFH-NH2; not fully specified (N-terminus); cysteine pairing not given here; also: biotinylated)
